# Test results reported in patent publication US20030049317A1, “Method and composition for reducing the danger and preventing the abuse of controlled release pharmaceutical formulations” (priority 2001, published 2003).
# Read-outs that look alike come from different tables or passages of the source.
# Experiments:
# [1] = type: in vivo; details: in comparison to a 15 mg dose of hydrocodone
# [2] = tested on: morphine-like opioid agonist effects; details: cited from earlier work; for action of the naloxone amount in Talwin Nx: naloxone hydrochloride equivalent to 0.5 mg base
Structure (SMILES),"Equianalgesic dose, Calculated Dose [1] [mg]",onset of effects ([2]; after intravenous administration),action of the naloxone amount in Talwin Nx ([2]; given by injection),action of the naloxone amount in Talwin Nx ([2]; taken orally),block of heroin effects ([2]; one mg intravenously versus 25 mg of heroin),effect on morphine-like opioid agonist effects ([2]; small doses (0.4-0.8 mg) intramuscularly or intravenously in humans)
COc1ccc2c3c1O[C@H]1C(=O)CC[C@H]4[C@@H](C2)N(C)CC[C@]314 [Hydrocodone],15.0,,,,,
C=CCN1CC[C@]23c4c5ccc(O)c4O[C@H]2C(=O)CC[C@@]3(O)[C@H]1C5 [naloxone],,almost immediately,profound antagonistic action to narcotic analgesics,no action when taken orally,completely block the effects of 25 mg of heroin,prevents or promptly reverses the effects of morphine-like opioid agonist
